Laboratory results: US20250282771A1, “TETRAHYDROISOQUINOLINE HETEROBIFUNCTIONAL BCL-XL DEGRADERS” (Treeline Biosciences, Inc., priority 2022, published 2025)

Target: T1, N-terminal HiBiT tagged BCL-XL (Homo sapiens, UniProt Q07817)
T1 construct: expressed in transfected cells; host or cells: HT-1080 (ATCC CCL-121) cells stably transduced with lentivirus pLV-UBC-N-HiBiT-BCL-XL-PGK-puro
Experiment: HiBiT based degradation assay
Format: cell-based
Conditions: HT1080 cells expressing N-terminal HiBiT tagged BCL-XL, BCL-XL level normalized with DMSO control
Excerpt: Human BCL-XL protein coding open reading frame fused with N-terminal HiBiT coding sequence was synthesized from Integrated DNA Technologies (IDT). Next, N-HiBiT-BCL-XL sequence was cloned into pLV-UBC-PGK-Puro, a lentivirus plasmid purchased from Vectorbuilder, to generate pLV-UBC-N-HiBiT-BCL-XL-PGK-puro. Lentiviral particles were generated from Lenti-X™ 293T cells (Clontech) by co-transfection of pLV-UBC-N-HiBiT-BCL-XL-PGK-puro plasmids and lentiviral packaging plasmid mix (Cellecta). HT-1080 [HT1080](ATCC CCL-121) cells were infected with the lentivirus, and HT1080 cells stably integrated with the lentiviral vectors were established by incubation with […] puromycin (Thermofisher).
HT1080 cells expressing N-terminal HiBiT tagged BCL-XL were dispensed into a 384-well plate pre-spotted with compounds at varying concentrations. Three thousand cells were seeded into each well in 40 μL of RPMI 1640 media. […] After incubation, luminescence was read on a PHERAstar FSX Plate Reader (BMG). BCL-XL degradation at each indicated concentration was normalized with the DMSO control. The BCL-XL degradation curves were plotted using a four-parameter logistic model. For compounds displaying hook effects, the curve fitting was performed using the bottom point of the hook curves (i.e., the point of Ymin) as the bottom plateau to calculate EC50.

T1 sequence (Q07817 whole entry): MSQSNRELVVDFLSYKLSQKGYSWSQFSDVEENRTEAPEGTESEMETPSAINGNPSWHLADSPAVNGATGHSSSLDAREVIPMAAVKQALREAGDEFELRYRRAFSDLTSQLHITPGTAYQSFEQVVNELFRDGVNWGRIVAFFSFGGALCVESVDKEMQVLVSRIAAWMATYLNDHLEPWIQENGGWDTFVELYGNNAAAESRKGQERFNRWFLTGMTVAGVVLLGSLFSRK

In the case of `Cc1c(O[C@H]2CC[C@H](CCCN3CCN(c4cc5c(cc4F)C(=O)N(C4CCC(=O)NC4=O)C5=O)CC3)CC2)cccc1-c1ccc(N2CCc3cccc(C(=O)Nc4nc5ccccc5s4)c3C2)nc1C(=O)O` (some centres unmarked) [Compound 112a, 6-(8-(benzo[d]thiazol-2-ylcarbamoyl)-3,4-dihydroisoquinolin-2(1H)-yl)-3-(3-(((1s,4r)-4-(3-(4-(2-(2,6-dioxopiperidin-3-yl)-6-fluoro-1,3-dioxoisoindolin-5-yl)piperazin-1-yl)propyl)cyclohexyl)oxy)-2-methylphenyl)picolinic acid], the “Ymin (6 h)” value is reported as “B (50% ≤ Ymin < 70%)” and the “Ymin (24 h)” value is reported as “C (Ymin ≥ 70%)”.

With `Cc1cc(OCCCC2CCN(CCN3CCN(c4cc5c(cc4F)C(=O)N(C4CCC(=O)NC4=O)C5=O)CC3)CC2)ccc1-c1ccc(N2CCc3cccc(C(=O)Nc4nc5ccccc5s4)c3C2)nc1C(=O)O` (centres unmarked) [Compound 121] the “Ymin (24 h)” value was “A (Ymin < 50%)”.

With `Cc1c(OCCCCCCN2CCN(c3cc4c(cc3F)C(=O)N(C3CCC(=O)NC3=O)C4=O)CC2)cccc1-c1ccc(N2CCc3cccc(C(=O)Nc4nc5ccccc5s4)c3C2)nc1C(=O)O` (centres unmarked) [Compound 115] the “Ymin (6 h)” value was “C (Ymin ≥ 70%)” and the “Ymin (24 h)” value was “B (50% ≤ Ymin < 70%)”.

In the case of `Cc1c(OCCCCCCCCC(=O)N2CCN(c3cc4c(cc3F)C(=O)N(C3CCC(=O)NC3=O)C4=O)CC2)cccc1-c1ccc(N2CCc3cccc(C(=O)Nc4nc5ccccc5s4)c3C2)nc1C(=O)O` (centres unmarked) [Compound 109], the “Ymin (6 h)” value is reported as “B (50% ≤ Ymin < 70%)”.

In the case of `Cc1c(OCCCC2CCN(CC3CCN(c4cc5c(cc4F)C(=O)N(C4CCC(=O)NC4=O)C5=O)CC3)CC2)cccc1-c1ccc(N2CCc3cccc(C(=O)Nc4nc5ccccc5s4)c3C2)nc1C(=O)O` (centres unmarked) [Compound 143, 6-[8-(1,3-benzothiazol-2-ylcarbamoyl)-3,4-dihydro-1H-isoquinolin-2-yl]-3-[3-[3-[1-[[1-[2-(2,6-dioxo-3-piperidyl)-6-fluoro-1,3-dioxo-isoindolin-5-yl]-4-piperidyl]methyl]-4-piperidyl]propoxy]-2-methyl-phenyl]pyridine-2-carboxylic acid], the “Ymin (24 h)” value is reported as “B (50% ≤ Ymin < 70%)”.

In the case of `Cc1c(OCCCCC2CCN(CC3CCN(c4cc5c(cc4F)C(=O)N(C4CCC(=O)NC4=O)C5=O)CC3)CC2)cccc1-c1ccc(N2CCc3cccc(C(=O)Nc4nc5ccccc5s4)c3C2)nc1C(=O)O` (centres unmarked) [Compound 144, 6-[8-(1,3-benzothiazol-2-ylcarbamoyl)-3,4-dihydro-1H-isoquinolin-2-yl]-3-[3-[4-[1-[[1-[2-(2,6-dioxo-3-piperidyl)-6-fluoro-1,3-dioxo-isoindolin-5-yl]-4-piperidyl]methyl]-4-piperidyl]butoxy]-2-methyl-phenyl]pyridine-2-carboxylic acid], the “Ymin (24 h)” value is reported as “A (Ymin < 50%)”.

`Cc1c(Oc2ccc(CCCN3CCN(c4cc5c(cc4F)C(=O)N(C4CCC(=O)NC4=O)C5=O)CC3)cc2)cccc1-c1ccc(N2CCc3cccc(C(=O)Nc4nc5ccccc5s4)c3C2)nc1C(=O)O` (centres unmarked) [Compound 110, 6-[8-(1,3-Benzothiazol-2-ylcarbamoyl)-3,4-dihydro-1H-isoquinolin-2-yl]-3-[3-[4-[3-[4-[2-(2,6-dioxo-3-piperidyl)-6-fluoro-1,3-dioxo-isoindolin-5-yl]piperazin-1-yl]propyl]phenoxy]-2-methyl-phenyl]pyridine-2-carboxylic acid] was tested, and the “Ymin (6 h)” value was “B (50% ≤ Ymin < 70%)” and the “Ymin (24 h)” value was “B (50% ≤ Ymin < 70%)”.

With `Cc1c(O[C@H]2CC[C@H](CCC(=O)N3CCN(c4cc5c(cc4F)C(=O)N(C4CCC(=O)NC4=O)C5=O)CC3)CC2)cccc1-c1ccc(N2CCc3cccc(C(=O)Nc4nc5ccccc5s4)c3C2)nc1C(=O)O` (some centres unmarked) [Compound 111a, 6-(8-(benzo[d]thiazol-2-ylcarbamoyl)-3,4-dihydroisoquinolin-2(1H)-yl)-3-(3-(((1r,4r)-4-(3-(4-(2-(2,6-dioxopiperidin-3-yl)-6-fluoro-1,3-dioxoisoindolin-5-yl)piperazin-1-yl)-3-oxopropyl)cyclohexyl)oxy)-2-methylphenyl)picolinic acid] the “Ymin (6 h)” value was “B (50% ≤ Ymin < 70%)” and the “Ymin (24 h)” value was “B (50% ≤ Ymin < 70%)”.

`Cc1c(OCCCCCCCCCC(=O)N2CCN(c3cc4c(cc3F)C(=O)N(C3CCC(=O)NC3=O)C4=O)CC2)cccc1-c1ccc(N2CCc3cccc(C(=O)Nc4nc5ccccc5s4)c3C2)nc1C(=O)O` (centres unmarked) [Compound 102] was tested, and the “Ymin (6 h)” value was “A (Ymin < 50%)”.

`Cc1c(O[C@@H](C)CCC2CCN(CC(=O)N3CCN(c4cc5c(cc4F)C(=O)N(C4CCC(=O)NC4=O)C5=O)CC3)CC2)cccc1-c1ccc(N2CCc3cccc(C(=O)Nc4nc5ccccc5s4)c3C2)nc1C(=O)O` (stereo partly drawn) [Compound 128a, 6-(8-(benzo[d]thiazol-2-ylcarbamoyl)-3,4-dihydroisoquinolin-2(1H)-yl)-3-(3-(((2S)-4-(1-(2-(4-(2-(2,6-dioxopiperidin-3-yl)-6-fluoro-1,3-dioxoisoindolin-5-yl)piperazin-1-yl)-2-oxoethyl)piperidin-4-yl)butan-2-yl)oxy)-2-methylphenyl)picolinic acid] was tested, and the “Ymin (6 h)” value was “C (Ymin ≥ 70%)” and the “Ymin (24 h)” value was “B (50% ≤ Ymin < 70%)”.

For `Cc1c(O[C@H](C)CCC2CCN(CC(=O)N3CCN(c4cc5c(cc4F)C(=O)N(C4CCC(=O)NC4=O)C5=O)CC3)CC2)cccc1-c1ccc(N2CCc3cccc(C(=O)Nc4nc5ccccc5s4)c3C2)nc1C(=O)O` (stereo partly drawn) [Compound 128b, 6-[8-(1,3-benzothiazol-2-ylcarbamoyl)-3,4-dihydro-1H-isoquinolin-2-yl]-3-[3-[(1R)-3-[1-[2-[4-[2-(2,6-dioxo-3-piperidyl)-6-fluoro-1,3-dioxo-isoindolin-5-yl]piperazin-1-yl]-2-oxo-ethyl]-4-piperidyl]-1-methyl-propoxy]-2-methyl-phenyl]pyridine-2-carboxylic acid], the “Ymin (24 h)” value was “B (50% ≤ Ymin < 70%)”.

`Cc1c(OCC(F)(F)CC2CCN(CC(=O)N3CCN(c4cc5c(cc4F)C(=O)N(C4CCC(=O)NC4=O)C5=O)CC3)CC2)cccc1-c1ccc(N2CCc3cccc(C(=O)Nc4nc5ccccc5s4)c3C2)nc1C(=O)O` (centres unmarked) [Compound 127, 6-(8-(benzo[d]thiazol-2-ylcarbamoyl)-3,4-dihydroisoquinolin-2(1H)-yl)-3-(3-(3-(1-(2-(4-(2-(2,6-dioxopiperidin-3-yl)-6-fluoro-1,3-dioxoisoindolin-5-yl)piperazin-1-yl)-2-oxoethyl)piperidin-4-yl)-2,2-difluoropropoxy)-2-methylphenyl)picolinic acid] was tested, and the “Ymin (24 h)” value was “B (50% ≤ Ymin < 70%)”.
